Structures can show the parent of a compound that is named as a salt.
These molecules were tested against T1, TBK1 (Homo sapiens, UniProt Q9UHD2) (assay: TBK1 inhibition, ADP-Glo Kinase Assay). Conditions: luminometer.
T1 construct: purchased Promega V3991
T1 sequence (Q9UHD2 1-729): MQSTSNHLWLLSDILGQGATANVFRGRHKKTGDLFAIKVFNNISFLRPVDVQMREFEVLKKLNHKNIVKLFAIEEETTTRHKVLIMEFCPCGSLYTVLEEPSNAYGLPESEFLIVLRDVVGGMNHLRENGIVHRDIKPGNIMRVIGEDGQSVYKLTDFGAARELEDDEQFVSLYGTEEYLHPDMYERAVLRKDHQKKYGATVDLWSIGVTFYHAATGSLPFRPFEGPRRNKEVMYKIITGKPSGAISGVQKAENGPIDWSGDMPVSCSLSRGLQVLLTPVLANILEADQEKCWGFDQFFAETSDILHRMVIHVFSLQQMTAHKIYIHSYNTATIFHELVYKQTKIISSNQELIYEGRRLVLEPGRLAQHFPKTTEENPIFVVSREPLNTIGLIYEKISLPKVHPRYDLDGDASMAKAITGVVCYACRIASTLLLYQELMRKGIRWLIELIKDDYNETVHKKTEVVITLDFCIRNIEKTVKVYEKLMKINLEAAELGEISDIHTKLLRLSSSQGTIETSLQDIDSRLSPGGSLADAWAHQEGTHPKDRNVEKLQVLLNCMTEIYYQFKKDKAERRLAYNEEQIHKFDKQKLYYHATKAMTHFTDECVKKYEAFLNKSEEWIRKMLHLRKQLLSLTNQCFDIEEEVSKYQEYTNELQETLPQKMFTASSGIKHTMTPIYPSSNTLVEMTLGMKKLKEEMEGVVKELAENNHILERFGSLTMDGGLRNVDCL
Type: biochemical
Protocol: Inhibition activities on TNIK, IKKε and TBK1 were evaluated using the compounds of Examples 1 to 254.
The inhibition activities on TNIK, IKKε and TBK1 were measured by a luminometer, TNIK/IKKε/TBK1 Kinase Enzyme System (Promega, Ca# V4158; Invitrogen, PR8031B, Promega, Ca# V3991) and ADP-Glo Kinase Assay using ADP-Glo™ Kinase Analysis Kit (Promega, Ca# V9101) and a kinase reaction buffer [40 mM Tris(pH 7.5), 20 mM MgCl2, 0.1 mg/mL BSA] in accordance with the manufacturer's protocol.

Structure (SMILES)	IC50
COc1ccc(C(=O)Nc2n[nH]c3ccc(C(=O)N(C)Cc4cccs4)cc23)cc1 [Example 4, 3-(4-Methoxybenzamido)-N-methyl-N-(thiophen-2-ylmethyl)-1H-indazole-5-carboxamide]	0.83 µM
O=C(NCc1cccs1)c1ccc2[nH]nc(NC(=O)c3ccc(NC4CCCCCC4)cc3)c2c1 [Example 164, 3-(4-(Cycloheptylamino)benzamido)-N-(thiophen-2-ylmethyl)-1H-indazole-5-carboxamide]	5.6 µM
CC(C)(C)c1ccc(C(=O)Nc2n[nH]c3ccc(C(=O)NCc4cccs4)cc23)cc1 [Example 10, 3-(4-tert-Butylbenzamido)-N-(thiophen-2-ylmethyl)-1H-indazole-5-carboxamide]	0.03 µM
COc1ccc(C(=O)Nc2n[nH]c3ccc(-c4ccc(CN5CCOCC5)s4)cc23)cc1 [Example 12, 4-Methoxy-N-(5-(5-(morpholinomethyl)thiophen-2-yl)-1H-indazol-3-yl)benzamide]	0.43 µM
O=C(NCc1cccs1)c1ccc2[nH]nc(NC(=O)c3ccc(O)cc3)c2c1 [Example 200, 3-(4-Hydroxybenzamido)-N-(thiophen-2-ylmethyl)-1H-indazole-5-carboxamide]	0.093 µM
CC(NC(=O)c1ccc2[nH]nc(NC(=O)c3ccc(F)cc3)c2c1)c1cccs1 (centres unmarked) [Example 14, 3-(4-Fluorobenzamido)-N-(1-(thiophen-2-yl)ethyl)-1H-indazole-5-carboxamide]	0.042 µM
O=C(NCc1cccs1)c1ccc2[nH]nc(NC(=O)c3ccc(NC4CCCC4)cc3)c2c1 [Example 163, 3-(4-(Cyclopentylamino)benzamido)-N-(thiophen-2-ylmethyl)-1H-indazole-5-carboxamide]	0.036 µM
O=C(NCc1cccs1)c1ccc2[nH]nc(NC(=O)c3ccc(N4CCOCC4)cc3N3CCOCC3)c2c1 [Example 168, 3-(2,4-Dimorpholinobenzamido)-N-(thiophen-2-ylmethyl)-1H-indazole-5-carboxamide]	6.6 µM
O=C(NCc1cccs1)c1ccc2[nH]nc(NC(=O)c3ccccc3)c2c1 [Example 13, 3-Benzamido-N-(thiophen-2-ylmethyl)-1H-indazole-5-carboxamide]	0.036 µM
O=C(NCc1cccs1)c1ccc2[nH]nc(NC(=O)c3ccc(NCCC4CCOCC4)cc3)c2c1 [Example 160, 3-(4-((2-(Tetrahydro-2H-pyran-4-yl)ethyl)amino)benzamido)-N-(thiophen-2-ylmethyl)-1H-indazole-5-carboxamide]	0.0054 µM
COc1ccc(C(=O)Nc2n[nH]c3ccc(C(=O)N4CCc5ccsc5C4)cc23)cc1 [Example 5, 4-Methoxy-N-(5-(4,5,6,7-tetrahydrothieno[2,3-c]pyridine-6-carbonyl)-1H-indazol-3-yl)benzamide]	8.4 µM
O=C(NCc1cccs1)c1ccc2[nH]nc(NC(=O)c3ccc(NCC4CCCCC4)cc3)c2c1 [Example 166, 3-(4-((Cyclohexylmethyl)amino)benzamido)-N-(thiophen-2-ylmethyl)-1H-indazole-5-carboxamide]	0.26 µM
O=C(NCc1cccs1)c1ccc2[nH]nc(NC(=O)c3ccc([N+](=O)[O-])cc3)c2c1 [Example 203, 3-(4-Nitrobenzamido)-N-(thiophen-2-ylmethyl)-1H-indazole-5-carboxamide]	0.075 µM
O=C(NCc1cccs1)c1ccc2[nH]nc(NS(=O)(=O)c3ccccc3)c2c1 [Example 39, 3-(Phenylsulfonamido)-N-(thiophen-2-ylmethyl)-1H-indazole-5-carboxamide]	> 10 µM
CN(Cc1cccs1)C(=O)c1ccc2[nH]nc(NC(=O)c3ccc(N4CCOCC4)cc3)c2c1 [Example 42, N-Methyl-3-(4-morpholinobenzamido)-N-(thiophen-2-ylmethyl)-1H-indazole-5-carboxamide]	0.2 µM
O=C(Nc1n[nH]c2ccc(CNCc3cccs3)cc12)c1ccc(F)cc1 [Example 31, 4-Fluoro-N-(5-(((thiophen-2-ylmethyl)amino)methyl)-1H-indazol-3-yl)benzamide Hydrochloride]	> 10 µM
CCC(NC(=O)c1ccc2[nH]nc(NC(=O)c3ccc(F)cc3)c2c1)c1cccs1 (centres unmarked) [Example 17, 3-(4-Fluorobenzamido)-N-(1-(thiophen-2-yl)propyl)-1H-indazole-5-carboxamide]	0.013 µM
O=C(NCc1cccs1)c1ccc2[nH]nc(NC(=O)c3cccc([N+](=O)[O-])c3)c2c1 [Example 204, 3-(3-Nitrobenzamido)-N-(thiophen-2-ylmethyl)-1H-indazole-5-carboxamide]	0.077 µM
O=C(NCc1cccs1)c1ccc2[nH]nc(NC(=O)c3ccc(NC4CCCCCCC4)cc3)c2c1 [Example 165, 3-(4-(Cyclooctylamino)benzamido)-N-(thiophen-2-ylmethyl)-1H-indazole-5-carboxamide]	0.43 µM
O=C1CC(C(=O)Nc2ccc(C(=O)Nc3n[nH]c4ccc(C(=O)NCc5cccs5)cc34)cc2)C1 [Example 208, 3-(4-(3-Oxocyclobutanecarboxamido)benzamido)-N-(thiophen-2-ylmethyl)-1H-indazole-5-carboxamide]	0.027 µM
Nc1ccc(C(=O)Nc2n[nH]c3ccc(C(=O)NCc4cccs4)cc23)cc1 [Example 205, 3-(4-Aminobenzamido)-N-(thiophen-2-ylmethyl)-1H-indazole-5-carboxamide]	0.003 µM
CSc1ccc(C(=O)Nc2n[nH]c3ccc(C(=O)NCc4cccs4)cc23)cc1 [Example 6, 3-(4-(Methylthio)benzamido)-N-(thiophen-2-ylmethyl)-1H-indazole-5-carboxamide]	0.025 µM
O=C(NCc1cccs1)c1ccc2[nH]nc(NC(=O)c3ccc(NC(=O)C4CCC4)cc3)c2c1 [Example 206, 3-(4-(Cyclobutanecarboxamido)benzamido)-N-(thiophen-2-ylmethyl)-1H-indazole-5-carboxamide]	0.026 µM
O=C(NCc1cccs1)c1ccc2[nH]nc(NC(=O)c3ccc(F)cc3)c2c1 [Example 36, 3-(4-Fluorobenzamido)-N-(thiophen-2-ylmethyl)-1H-indazole-5-carboxamide]	0.089 µM
O=C(NCc1cccs1)c1ccc2[nH]nc(NC(=O)c3ccc(NCCn4cccc4)cc3)c2c1 [Example 169, 3-(4-((2-(1H-Pyrrol-1-yl)ethyl)amino)benzamido)-N-(thiophen-2-ylmethyl)-1H-indazole-5-carboxamide]	0.03 µM
CN1CCN(c2ccc(C(=O)Nc3n[nH]c4ccc(C(=O)NCc5cccs5)cc34)c(F)c2)CC1 [Example 170, 3-(2-Fluoro-4-(4-methylpiperazin-1-yl)benzamido)-N-(thiophen-2-ylmethyl)-1H-indazole-5-carboxamide]	> 10 µM
O=C(NCc1cccs1)c1ccc2[nH]nc(NC(=O)c3ccc(NC(=O)C4(C(F)(F)F)CC4)cc3)c2c1 [Example 207, N-(Thiophen-2-ylmethyl)-3-(4-(1-(trifluoromethyl)cyclopropanecarboxamido)benzamido)-1H-indazole-5-carboxamide]	0.038 µM
CCCCCCNc1ccc(C(=O)Nc2n[nH]c3ccc(C(=O)NCc4cccs4)cc23)cc1 [Example 161, 3-(4-(Hexylamino)benzamido)-N-(thiophen-2-ylmethyl)-1H-indazole-5-carboxamide]	0.76 µM
O=C(NCc1ccncc1)c1ccc2[nH]nc(NC(=O)c3ccc(F)cc3)c2c1 [Example 29, 3-(4-Fluorobenzamido)-N-(pyridin-4-ylmethyl)-1H-indazole-5-carboxamide]	0.28 µM

— US10294207B2, “Pyrazole derivatives as TNIK, IKKϵ and TBK1 inhibitor and pharmaceutical composition comprising same” (GREEN CROSS CORPORATION, priority 2015, dated 2019)
